Measured values as given in patent publication US8759520B2, “Compounds for treating cancer” (Boehringer Ingelheim International GmbH, priority 2008, dated 2014).

Biological target: Bcl-2 (Homo sapiens, UniProt P10415)
Assay: Homogeneous HTS assay for inhibitors of the Bcl-2 : Bak (72-87) BH3 domain interaction, fluorescence polarisation (2D-FIDA)
Format: binding
Settings: fluorescence polarisation, fluorescent labelled Bak BH3 domain derived peptide; read-out: IC50 [μM] Bcl-2
Excerpt: FIG. 1 is a schematic drawing of the Bcl-2: Bak (72-87) interaction assay based on fluorescence polarisation.
The homogeneous HTS assay for inhibitors of the Bcl-2 is shown schematically in FIG. 1. BH3 domain interaction is based on fluorescence polarisation. The inherent rotational diffusion of the Bak BH3 domain derived fluorescent labelled peptide decreases upon binding to Bc1-2. This shift in rotational diffusion is quantitated using the two-dimensional fluorescence intensity distribution analysis (2D-FIDA; Kask et al. 2000, Biophys. J. 78: 1703-1713).
Two different BH3 domain derived peptide ligands were synthesised and subsequently fluorescently labelled: • a 16mer peptide covering amino acids 72-87 of the Bak protein; this peptide had been used by Wang and co-workers and Holinger and coworkers in their Bcl-2 protein binding studies; Wang and co-workers reported an equilibrium binding constant KD of ˜0.2 μM to Bcl-2 protein; • peptide sequence: GQVGRQLAIIGDDINR—N (Wang et al. 2002, Proc. Natl. Acad. Sci. U.S.A. 97: 7124-7129; Holinger et al. 1999, J. Biol. Chem. 274: 13298-13304).

Chain of Bcl-2 (P10415 whole entry, species assumed, the tested form may be a part): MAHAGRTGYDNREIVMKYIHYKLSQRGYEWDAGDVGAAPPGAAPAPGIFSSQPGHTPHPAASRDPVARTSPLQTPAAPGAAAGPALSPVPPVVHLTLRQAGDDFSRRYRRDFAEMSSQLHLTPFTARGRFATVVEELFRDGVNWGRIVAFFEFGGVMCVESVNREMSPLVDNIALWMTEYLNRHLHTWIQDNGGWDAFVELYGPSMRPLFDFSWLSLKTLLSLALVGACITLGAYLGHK

Compound | IC50
N=c1n(CCCOc2ccc(F)cc2)c2ccccc2n1Cc1ccc(CN2CCN(Cc3ccc(Cl)cc3)CC2)cc1 [Compound 39, 1-{4-[4-(4-Chloro-benzyl)-piperazin-1-ylmethyl]-benzyl}-3-[3-(4-fluoro-phenoxy)-propyl]-1,3-dihydro-benzoimidazol-2-ylideneamine] | 11 to 100 µM
N=c1n(CCCOc2ccc(F)cc2)c2ccccc2n1Cc1ccc(CN2CCN(c3ccc(Cl)cc3)CC2)cc1 [Compound 42, 1-{4-[4-(4-Chloro-phenyl)-piperazin-1-ylmethyl]-benzyl}-3-[3-(4-fluoro-phenoxy)-propyl]-1,3-dihydro-benzoimidazol-2-ylideneamine] | 11 to 100 µM
N=c1n(CCCOc2ccc(F)cc2)c2ccccc2n1Cc1ccc(CNCC(=O)Nc2ccccc2Cl)cc1 [Compound 43, N-(2-Chloro-phenyl)-2-(4-{3-[3-(4-fluoro-phenoxy)-propyl]-2-imino-2,3-dihydro-benzoimidazol-1-ylmethyl}-benzylamino)-acetamide] | 11 to 100 µM
N=c1n(CCCOc2ccc(F)cc2)c2ccccc2n1Cc1ccc(CN2CCN(c3ccccc3Cl)CC2)cc1 [Compound 44, 1-{4-[4-(2-Chloro-phenyl)-piperazin-1-ylmethyl]-benzyl}-3-[3-(4-fluoro-phenoxy)-propyl]-1,3-dihydro-benzoimidazol-2-ylideneamine] | 11 to 100 µM
N=c1n(CCCOc2ccc(F)cc2)c2ccccc2n1Cc1ccc(CNCC(=O)Nc2ccc(Cl)cc2)cc1 [Compound 45, N-(4-Chloro-phenyl)-2-(4-{3-[3-(4-fluoro-phenoxy)-propyl]-2-imino-2,3-dihydro-benzoimidazol-1-ylmethyl}-benzylamino)-acetamide] | 11 to 100 µM

Next, values leading:

IC50 | Compound
11 to 100 µM | N=c1n(CCCOc2ccc(F)cc2)c2ccccc2n1Cc1csc(Cl)n1 [Compound 34, 1-(2-Chloro-thiazol-4-ylmethyl)-3-[3-(4-fluoro-phenoxy)-propyl]-1,3-dihydro-benzoimidazol-2-ylideneamine]
< 10 µM | N=c1n(CCCOc2ccc(F)cc2)c2ccccc2n1Cc1csc(N2CCN(Cc3ccccc3-c3ccccc3)CC2)n1 [Compound 35, 1-[2-(4-Biphenyl-2-ylmethyl-piperazin-1-yl)-thiazol-4-ylmethyl]-3-[3-(4-fluoro-phenoxy)-propyl]-1,3-dihydro-benzoimidazol-2-ylideneamine]
< 10 µM | N=c1n(CCCOc2ccc(F)cc2)c2ccccc2n1Cc1csc(N2CCN(Cc3ccccc3-c3ccc(Cl)cc3)CC2)n1 [Compound 36, 1-{2-[4-(4′-Chloro-biphenyl-2-ylmethyl)-piperazin-1-yl]-thiazol-4-ylmethyl}-3-[3-(4-fluoro-phenoxy)-propyl]-1,3-dihydro-benzoimidazol-2-ylideneamine]
< 10 µM | CC1(C)CCC(c2ccc(Cl)cc2)=C(CN2CCN(c3nc(Cn4c(=N)n(CCCOc5ccc(F)cc5)c5ccccc54)cs3)CC2)C1 [Compound 37, 1-(2-{4-[2-(4-Chloro-phenyl)-5,5-dimethyl-cyclohex-1-enylmethyl]-piperazin-1-yl}-thiazol-4-ylmethyl)-3-[3-(4-fluoro-phenoxy)-propyl]-1,3-dihydro-benzoimidazol-2-ylideneamine]
< 10 µM | N=c1n(CCCOc2ccc(F)cc2)c2ccccc2n1Cc1ccccc1N1CCN(Cc2ccccc2-c2ccccc2)CC1 [Compound 38, 1-[2-(4-Biphenyl-2-ylmethyl-piperazin-1-yl)-benzyl]-3-[3-(4-fluoro-phenoxy)-propyl]-1,3-dihydro-benzoimidazol-2-ylideneamine]
11 to 100 µM | N=c1n(CCCOc2ccc(F)cc2)c2ccccc2n1Cc1ccc(CN2CCN(c3ccccc3)CC2)cc1 [Compound 40, 1-[3-(4-Fluoro-phenoxy)-propyl]-3-[4-(4-phenyl-piperazin-1-ylmethyl)-benzyl]-1,3-dihydro-benzoimidazol-2-ylideneamine]
11 to 100 µM | N=c1n(CCCOc2ccc(F)cc2)c2ccccc2n1Cc1ccc(CN2CCN(c3cccc(Cl)c3)CC2)cc1 [Compound 41, 1-{4-[4-(3-Chloro-phenyl)-piperazin-1-ylmethyl]-benzyl}-3-[3-(4-fluoro-phenoxy)-propyl]-1,3-dihydro-benzoimidazol-2-ylideneamine]
